According to publication PMC12692036, “Multi-Target Screening of Anti-Diabetic and Antioxidant Potential Bioactive Constituents from Dandelion” (Foods, 2025):
pIC50: −log10 of the molar value.

How the values were obtained:
α-amylase [1] = target: T1, α-amylase (Sus scrofa, UniProt P00690); assay: Affinity ultrafiltration MTAUF-UPLC-MS/MS of DE with α-amylase; type: binding, porcine; conditions: peak area with active / inactivated enzyme; DE 5.0 mg·mL^−1
T1 construct: purchased Adamas-beta Reagents Co., Ltd. (Shanghai, China); host or cells: porcine pancreas
T1 sequence (P00690 16-511): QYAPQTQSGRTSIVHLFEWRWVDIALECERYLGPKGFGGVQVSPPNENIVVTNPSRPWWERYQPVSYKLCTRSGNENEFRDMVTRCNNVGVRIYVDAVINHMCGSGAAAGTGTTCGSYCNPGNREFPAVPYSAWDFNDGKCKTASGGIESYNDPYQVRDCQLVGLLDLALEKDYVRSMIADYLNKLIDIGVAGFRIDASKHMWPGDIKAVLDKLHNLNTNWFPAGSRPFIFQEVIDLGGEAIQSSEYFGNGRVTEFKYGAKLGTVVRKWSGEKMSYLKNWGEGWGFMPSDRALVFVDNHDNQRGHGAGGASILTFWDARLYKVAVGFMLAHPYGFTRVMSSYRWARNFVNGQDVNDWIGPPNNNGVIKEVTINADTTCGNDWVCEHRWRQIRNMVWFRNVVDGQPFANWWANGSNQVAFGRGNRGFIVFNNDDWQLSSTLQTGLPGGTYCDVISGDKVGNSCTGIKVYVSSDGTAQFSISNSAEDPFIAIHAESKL
Experimental: (§1) Based on hypoglycemic inhibitory activities, potential inhibitors in the DE extract were screened using the MTAUF-UPLC-MS/MS method, as previously described. Firstly, α-amylase or α-glucosidase enzymes were inactivated by heating in boiling water for 20 min. Secondly, 100 µL of DE sample (5.0 mg·mL^−1 in PBS, pH = 6.8), 20 µL of either 2 U·mL^−1 active or inactivated enzyme, and 190 µL PBS were mixed, shaken well, and incubated at 37 °C for 60 min. […] This step was repeated 3 times. […] This step was also repeated 3 times. The resulting solution was dried and reconstituted in 50 µL methanol for further UPLC-QTOF-MS/MS analysis.

α-glucosidase [2] = assay: Affinity ultrafiltration MTAUF-UPLC-MS/MS of DE with α-glucosidase; type: binding, Saccharomyces cerevisiae; conditions: peak area with active / inactivated enzyme; DE 5.0 mg·mL^−1
Experimental: as §1

α-amylase [3] = target: T1, α-amylase; assay: α-Amylase inhibitory activity (DNS method); type: biochemical, porcine; conditions: mean ± SD, n = 3
Experimental: α-Amylase inhibitory activity was examined based on a modified method described previously. Firstly, 200 µL of sample test solution and 100 µL of 1 U·mL^−1 α-amylase solution were transferred into 5 mL centrifuge tube, and incubated in a 37 °C constant temperature water bath for 10 min. Secondly, 200 µL of 1% starch solution was added and incubated in a 37 °C constant temperature water bath for 5 min. Thirdly, 500 µL of DNS reagent was prepared, added, immersed and reacted in boiling water for 5 min [7]. Subsequently, the reaction solution was removed from boiling water and cooled for 10 min. Finally, 200 µL of the reaction solution was transferred into a 96-well microplate, and measured its absorbance value at a wavelength of 540 nm by ReadMax1200 microplate reader. Each experiment was conducted in triplicate.

[4] = DPPH radical scavenging capacity; conditions: mean ± SD, n = 3
Experimental: This method had been slightly modified according to the literature. Firstly, 10 μL of sample test solution and 190 μL of 0.1 mmol·L^−1 DPPH working solution were added to a 96-well microplate, shaken well, and reacted in the dark for 30 min. The absorbance at 517 nm was measured by ReadMax1200 microplate reader. The positive control was Trolox and Vc, and the blank control was anhydrous ethanol, with each experiment conducted in triplicate. The standard curve was plotted to obtain the linear regression equation. […] The TEAC values were calculated from the standard curve of Trolox and expressed as millimoles of Trolox equivalents per gram of sample (mmol TE/g).

[5] = ABTS radical scavenging capacity; conditions: mean ± SD, n = 3
Experimental: This method had been slightly modified according to the literature. Firstly, 1.32 mg·mL^−1 potassium persulfate and 3.84 mg·mL^−1 ABTS^+• were mixed in a volume ratio of 1:1 to obtain the ABTS^+• mother liquor. The ABTS^+• mother liquor was stored in a dark environment for 12–16 h, diluted with ethanol, and adjusted to an absorbance range of 0.695 ± 0.705 at 734 nm to obtain an ABTS^+• working solution. Secondly, 100 μL of sample test solution and 190 μL ABTS^+• working solution were added to a 96-well microplate, shaken well, and reacted in the dark for 30 min. Finally, the absorbance at 734 nm was measured by ReadMax1200 microplate reader. The positive control was Trolox and Vc, and the blank control was anhydrous ethanol, with each experiment conducted in triplicate. The ABTS radical scavenging capacities were also expressed as IC50 and TEAC values, calculating according to Section 2.6.1. The standard curve was plotted to obtain the linear regression equation. The ABTS RCR was calculated as follows: (3) ABTS RCR=AABTS−ASample/AABTS×100% where AABTS and ASample were the absorbance values of blank control and sample, respectively.

[6] = FRAP iron ion reduction capacity; conditions: mean ± SD, n = 3
Experimental: This method had been slightly modified according to the literature. Firstly, 40 mmol·L^−1 HCl, 100 mmol·L^−1 FeSO4, 20 mmol·L^−1 FeCl3, 0.3 mol·L^−1 acetic acid sodium acetate buffer, and 10 mmol·L^−1 TPTZ were carefully prepared, respectively. Secondly, the TPTZ working solution was prepared by mixing 20 mmol·L^−1 FeCl3, 0.3 mol·L^−1 acetic acid sodium acetate buffer, and 10 mmol·L^−1 TPTZ in a volume ratio of 1:10:1. Thirdly, 100 μL of sample test solution and 190 μL TPTZ working solution were added to a 96-well microplate, shaken well, and reacted at room temperature for 10 min. Finally, the absorbance at 593 nm was measured by ReadMax1200 microplate reader. The positive control was Trolox and Vc, and the blank control was anhydrous ethanol, with each experiment conducted in triplicate. The FRAP assay results were quantified by extrapolating the absorbance values to the ferrous sulfate standard curve, with the antioxidant capacity expressed as millimolar ferrous ion equivalents per gram of dry sample weight (mmol Fe^2+·g^−1). The FRAP iron ion reduction capacities were also expressed as TEAC values, calculated according to Section 2.6.1.

α-glucosidase [7] = assay: α-Glucosidase inhibitory activity (pNPG); type: biochemical, Saccharomyces cerevisiae; conditions: mean ± SD, n = 3
Experimental: α-Glucosidase inhibitory activity was examined based on a modified method described previously. […] Then, 40 μL of 5 mmol·L^−1 pNPG was added, and the reaction was for an additional 15 min. Finally, 80 μL of 1 mol·L^−1 sodium carbonate was added to terminate the reaction, and measured its absorbance value at a wavelength of 405 nm by ReadMax1200 microplate reader (Shanpu, Shanghai, China). Each experiment was conducted in triplicate. […] The IR was calculated according to Equation (1) in Section 2.5.1.

| Compound | relative binding affinity (RBA) toward α-amylase (α-amylase [1]) | relative binding affinity (RBA) toward α-glucosidase (α-glucosidase [2]) | pIC50 (α-amylase [3]) | DPPH radical scavenging capacity IC50 [4] | ABTS radical scavenging capacity IC50 [5] | IC50 of α-glucosidase inhibitory activity (α-glucosidase [7]) | IC50 of α-amylase inhibitory activity (α-amylase [3]) | iron ion reducing capacity, equivalent concentration of ferrous ions (FRAP) [6] |
| --- | --- | --- | --- | --- | --- | --- | --- | --- |
| C=C1CC[C@]2(C)CC[C@]3(C)[C@H](CC[C@@H]4[C@@]5(C)CC[C@H](O)C(C)(C)[C@@H]5CC[C@]43C)[C@H]2[C@@H]1C [Compound 48, taraxasterol] | less than 1 | 1.46 ± 0.09 |  |  |  |  |  |  |
| O=c1cc(-c2ccccc2)oc2cc(O)cc(O)c12 [Compound 24, chrysin] | 1.66 ± 0.08 | 1.64 ± 0.05 |  |  |  |  |  |  |
| O=C1C[C@@H](c2ccccc2)Oc2cc(O)cc(O)c21 [Compound 25, pinocembrin] | 1.53 ± 0.06 | 1.11 ± 0.03 |  |  |  |  |  |  |
| COc1cc(-c2cc(=O)c3c(O)cc(O)cc3o2)cc(OC)c1O [Compound 18, tricin] | less than 1 |  |  |  |  |  |  |  |
| COc1cc(/C=C/C(=O)O)ccc1O [Compound 5, ferulic acid] | 1.08 ± 0.05 | 1.35 ± 0.05 |  | 6.11 ± 0.06 µg/mL | 1.20 ± 0.00 µg/mL |  |  |  |
| O=c1c(O)c(-c2ccc(O)c(O)c2)oc2cc(O)cc(O)c12 [Compound 8, quercetin] |  |  |  | 4.23 ± 0.04 µg/mL | 2.12 ± 0.02 µg/mL |  |  | 56.40 ± 1.81 mmol Fe^2+·g^−1 |
| O=C(/C=C/c1ccc(O)c(O)c1)O[C@H]1[C@H](O)C[C@](O)(C(=O)O)C[C@H]1OC(=O)/C=C/c1ccc(O)c(O)c1 [Compound 2, isochlorogenic acid C] | 1.71 ± 0.07 | less than 1 |  | 5.55 ± 0.02 µg/mL | 3.01 ± 0.03 µg/mL | 84.84 ± 4.31 µg/mL | 254.00 ± 0.78 µg/mL | 107.35 ± 3.42 mmol Fe^2+·g^−1 |
| O=c1cc(-c2ccc(O)c(O)c2)oc2cc(O)cc(O)c12 [Compound 7, luteolin] | 1.83 ± 0.07 | less than 1 |  | 1.96 ± 0.05 µg/mL | 2.47 ± 0.05 µg/mL |  |  |  |
| O=c1c(-c2ccc(O)cc2)coc2cc(O)cc(O)c12 [Compound 13, genistein] | 1.15 ± 0.09 | 1.60 ± 0.03 |  |  | 18.26 ± 0.52 µg/mL |  |  |  |
| COc1cc(-c2cc(=O)c3c(O)cc(O)cc3o2)cc(OC)c1O[C@H](CO)[C@@H](O)c1ccc(O)cc1 [Compound 17, calquiquelignan D] | less than 1 |  |  |  |  |  |  |  |

More lines, main results first:

| relative binding affinity (RBA) toward α-amylase (α-amylase [1]) | relative binding affinity (RBA) toward α-glucosidase (α-glucosidase [2]) | pIC50 (α-amylase [3]) | DPPH radical scavenging capacity IC50 [4] | ABTS radical scavenging capacity IC50 [5] | IC50 of α-glucosidase inhibitory activity (α-glucosidase [7]) | IC50 of α-amylase inhibitory activity (α-amylase [3]) | Compound | iron ion reducing capacity, equivalent concentration of ferrous ions (FRAP) [6] |
| --- | --- | --- | --- | --- | --- | --- | --- | --- |
|  |  | 4.00 | 5.18 ± 0.02 µg/mL | 3.93 ± 0.04 µg/mL |  |  | O=c1c(O)c(-c2ccc(O)cc2)oc2cc(O)cc(O)c12 [Compound 15, kaempferol] | 57.56 ± 1.33 mmol Fe^2+·g^−1 |
| 2.13 ± 0.07 | 2.09 ± 0.06 |  |  |  |  |  | COc1cc(O)c2c(=O)cc(-c3ccc(O)cc3)oc2c1 [Compound 27, genkwanin] |  |
| 1.05 ± 0.02 | less than 1 |  |  |  |  |  | COc1ccc(C=CC(=O)O)cc1OC [Compound 6, 3,4-dimethoxy cinnamic acid] |  |
| 1.48 ± 0.03 | 1.54 ± 0.03 |  |  |  | 35.99 ± 0.42 µg/mL |  | O=c1cc(-c2ccc(O)cc2)oc2cc(O)cc(O)c12 [Compound 14, apigenin] |  |
| less than 1 | 2.47 ± 0.07 |  |  |  |  |  | O=C(O)c1ccc(O)cc1 [Compound 3, 4-hydroxybenzoic acid] |  |
